# Laboratory results: patent US10758549B2, “Compositions of obeticholic acid and methods of use” (Intercept Pharmaceuticals, Inc., priority 2015, dated 2020)
# Legend:
# patients with PBC = assay: Example 9: randomized double-blind placebo-controlled 12-month trial of OCA in PBC; assay type: in vivo, human; conditions: for ALP < 2.0 × ULN and Decrease ≥ 40% at Month 6 [2] / ALP < 2.0 × ULN and Decrease ≥ 40% at Month 12 [2] / ALP < 2.0 × ULN at Month 6 [2] / ALP < 2.0 × ULN at Month 12 [2] / Decrease in ALP ≥ 40% at Month 6 [2] / Decrease in ALP ≥ 40% at Month 12 [2]: patients with Baseline ALP ≥ 2.0 × ULN
# Method: This example describes a randomized, double-blind, placebo-controlled, parallel-group, 12-month trial evaluating OCA in patients with PBC as a monotherapy.
# Patients with inflammatory bowel disease or who had undergone gastric bypass procedures were excluded (gastric lap band was acceptable). • Medical conditions that could cause non-hepatic increases in ALP (e.g., Paget's disease)
# ALP and TB composite response criteria were measured; a patient was designated as a responder if all three of the following conditions were met: • A value of ALP<1.67×ULN • ALP reduction from baseline ? 15% • A value of TB<ULN
# The absolute and percent change from Baseline in ALP, gamma-glutamyl transferase (GGT), alanine aminotransferase (ALT), AST, total bilirubin, conjugated (direct) bilirubin, albumin, prothrombin time and international normalized ratio (INR) at all-time points was measured. The percentage of patients with a decrease in ALP of ? 10%, ? 15%, ? 20%, and ? 40% from Baseline or ? ULN at month 12 was measured. The percentage of patients achieving the following biochemical response criteria was also measured: • ALP ? 3×ULN and AST ? 2×ULN and bilirubin ? ULN ((Corpechot 2008);
# Bile acid sequestrant (BAS) concomitant exposure. The primary analysis set used for all efficacy analyses, along with the summarization of disposition along with demographics and baseline characteristics, was the ‘Intent-to-Treat’ (ITT) analysis set. This analysis set included all randomized patients who received at least one dose of blinded study drug. When utilizing this analysis set, patients were analyzed according to the treatment group that they were randomized to regardless of the actual treatment received. It should be noted that all but one randomized patient received at least one dose of blinded study drug.
# A Cochran-Mantel-Haenszel (CMH) test which adjusted for both randomization stratification variables as described above, was used for pre-specified analysis. In tandem with the CMH test, a Breslow-Day test was also conducted, to test for the homogeneity of the treatment effect across the different randomization strata.
# [1] = target: T1, farnesoid X receptor (FXR) (Homo sapiens, UniProt Q96RI1); conditions: FXR agonism; cited from earlier work
# T1 sequence (Q96RI1 1-486): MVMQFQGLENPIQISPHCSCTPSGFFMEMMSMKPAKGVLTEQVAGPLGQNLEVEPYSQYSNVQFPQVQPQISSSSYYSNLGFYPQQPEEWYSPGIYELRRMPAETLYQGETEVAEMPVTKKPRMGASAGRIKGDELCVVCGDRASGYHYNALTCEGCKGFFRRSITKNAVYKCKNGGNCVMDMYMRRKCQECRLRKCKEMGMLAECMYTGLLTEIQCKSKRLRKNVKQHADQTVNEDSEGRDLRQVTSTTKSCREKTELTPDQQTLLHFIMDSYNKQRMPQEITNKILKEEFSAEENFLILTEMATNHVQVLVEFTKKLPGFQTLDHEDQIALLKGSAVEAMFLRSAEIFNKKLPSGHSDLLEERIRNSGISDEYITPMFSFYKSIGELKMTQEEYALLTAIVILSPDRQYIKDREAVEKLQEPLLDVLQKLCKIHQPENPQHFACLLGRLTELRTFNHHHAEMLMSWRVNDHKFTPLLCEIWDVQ
# [2] = Equilibrium solubility of OCA in various buffers at 37° C.; assay type: physicochemical; conditions: for solubility: aqueous buffer, 37 °C, thermodynamic from solid
# Method: Solubility Studies of OCA in Various Buffers. A study was performed to screen different media of various pH over the pH range 1.2-10.0, incorporating the physiological pH range (1.2-6.8) for immediate release tablets.
# [3] = patients with Baseline ALP ≥ 1.67 × ULN but < 2.0 × ULN, 10 mg OCA
# [4] = patients with Baseline ALP ≥ 1.67 × ULN but < 2.0 × ULN, OCA Titration
structure (smiles),measurement,setting,value
"CC[C@H]1[C@@H](O)[C@@H]2[C@H](CC[C@]3(C)[C@@H]([C@H](C)CCC(=O)O)CC[C@@H]23)[C@@]2(C)CC[C@@H](O)C[C@@H]12 [OCA, 3α,7α-dihydroxy-6α-ethyl-5β-cholan-24-oic acid]",ALP < 1.67 × ULN at Month 12 [3],patients with PBC; [3],(88.9%)
same,Decrease in ALP ≥ 15% at Month 6 [3],patients with PBC; [3],(88.9%)
same,Decrease in ALP ≥ 15% at Month 12 [3],patients with PBC; [3],(77.8%)
same,ALP < 1.67 × ULN and Decrease ≥ 15% at Month 6 [3],patients with PBC; [4],(76.9%)
same,ALP < 1.67 × ULN and Decrease ≥ 15% at Month 12 [3],patients with PBC; [4],(76.9%)
same,ALP < 1.67 × ULN at Month 6 [3],patients with PBC; [4],(76.9%)
same,ALP < 1.67 × ULN at Month 12 [3],patients with PBC; [4],(84.6%)
same,Decrease in ALP ≥ 15% at Month 6 [3],patients with PBC; [4],(84.6%)
same,Decrease in ALP ≥ 15% at Month 12 [3],patients with PBC; [4],(76.9%)
same,ALP < 2.0 × ULN and Decrease ≥ 40% at Month 6 [2],patients with PBC; 10 mg OCA,(21.4%)
same,ALP < 2.0 × ULN and Decrease ≥ 40% at Month 12 [2],patients with PBC; 10 mg OCA,(28.6%)
same,ALP < 2.0 × ULN at Month 6 [2],patients with PBC; 10 mg OCA,(71.4%)
same,ALP < 2.0 × ULN at Month 12 [2],patients with PBC; 10 mg OCA,(69.1%)
same,Decrease in ALP ≥ 40% at Month 6 [2],patients with PBC; 10 mg OCA,(23.8%)
same,Decrease in ALP ≥ 40% at Month 12 [2],patients with PBC; 10 mg OCA,(31.0%)
same,ALP < 2.0 × ULN and Decrease ≥ 40% at Month 6 [2],patients with PBC; OCA Titration,(23.4%)
same,ALP < 2.0 × ULN and Decrease ≥ 40% at Month 12 [2],patients with PBC; OCA Titration,(27.7%)
same,ALP < 2.0 × ULN at Month 6 [2],patients with PBC; OCA Titration,(51.1%)
same,ALP < 2.0 × ULN at Month 12 [2],patients with PBC; OCA Titration,(59.6%)
same,Decrease in ALP ≥ 40% at Month 6 [2],patients with PBC; OCA Titration,(27.7%)
same,Decrease in ALP ≥ 40% at Month 12 [2],patients with PBC; OCA Titration,(34.0%)
same,patients who experienced an increase in ALP,"patients with PBC; titration obeticholic acid, 12 months (placebo 36%)",5%
same,potency compared to CDCA,[1],approximately 100 fold
same,solubility,"[2]; pH 4.1, aqueous buffer, pH 4.1 Acetate",3 µg/mL
same,solubility,"[2]; pH 5.1, aqueous buffer, pH 5.1 Acetate",23 µg/mL
same,solubility,"[2]; pH 6, aqueous buffer, pH 6.0 Phosphate",50 µg/mL
same,solubility,"[2]; pH 6.8, aqueous buffer, above pH 6.8",> 10 µg/mL
same,solubility,"[2]; pH 6.8, aqueous buffer, pH 6.8 Phosphate (50 mM sodium phosphate dibasic)",220 µg/mL
same,solubility,"[2]; pH 7, aqueous buffer, pH 7.0 Phosphate",462 µg/mL
same,solubility,"[2]; pH 8, aqueous buffer, pH 8.0 Phosphate",486 µg/mL
same,solubility,"[2]; pH 9, aqueous buffer, pH 9.0 Alkaline Borate",462 µg/mL
same,solubility,"[2]; pH 10, aqueous buffer, pH 10.0 Alkaline Borate",56 µg/mL
same,USP Solubility Rating,[2]; pH 1.2 Hydrochloric acid,Practically
same,USP Solubility Rating,[2]; pH 2.0 Hydrochloric acid,Practically
same,USP Solubility Rating,[2]; pH 3.0 Acid Phthalate,Practically
same,USP Solubility Rating,[2]; pH 4.1 Acetate,Slightly soluble
same,USP Solubility Rating,[2]; pH 5.1 Acetate,Sparingly soluble
same,USP Solubility Rating,[2]; pH 6.0 Phosphate,Soluble
same,USP Solubility Rating,[2]; pH 6.8 Phosphate,Freely soluble
same,USP Solubility Rating,[2]; pH 7.0 Phosphate,Freely soluble
same,USP Solubility Rating,[2]; pH 8.0 Phosphate,Freely soluble
same,USP Solubility Rating,[2]; pH 9.0 Alkaline Borate,Freely soluble
same,USP Solubility Rating,[2]; pH 10.0 Alkaline Borate,Soluble
